Measured values from patent US12728126B2, “Compounds for inhibiting LY6K and methods of using same” (The Henry M. Jackson Foundation for the Advancement of …, priority 2020, dated 2026).
“Also recorded” adds a separate entry of the source.

Tests used:
MDA-MB-231 cells = assay: Cell-Titer-Blue assay, control vs LY6K knockdown MDA-MB-231 cells; assay type: cell-based; settings: 2 μM, 24 h, listed as NSC243928
Protocol: For cell death assay, cells were plated in a black walled 96-well plate and treated with the indicated concentration of drugs for 24 h. Cell-Titer-Blue reagent was added, and the Cytation 5 microplate reader (BioTek, Winooski, VT, USA) was used to measure fluorescence intensity (excitation 560(10) nm, emission 590(20) nm) according to manufacturer's instructions.
To confirm the effect of NSC243928 in LY6K-expressing cells, it was observed the parental control and sh2 LY6K knockdown in MDA-MB-231 cells, a triple negative breast cancer cell line. These cells were generated as previously described. To test the effect of NSC243928 on cell growth, the cells were seeded into 96-well plates and treated with 2 μM of the compound for 24 h. A CTB assay was then performed according to manufacturer's instructions to determine the cell growth.
(§1) Cells were serum starved overnight and then treated with TGF 13 (10 ng/mL) or IFN γ (100 ng/mL) in the presence of 2 μM NSC243928 or NSC11150 for 30 minutes followed by protein analysis using western blot. […] NSC243928 inhibited the TGFβ1 induced phosphorylation of Smad2/3; NSC11150 had no effect on TGFβ1/Smad2/3 signaling. NSC11150 inhibited IFNγ induced phosphorylation of Stat1; NSC243928 had no effect on IFNγ/Stat1 signaling.

[1] = tested on: 4T1 mouse mammary tumor cells; assay: 4T1 syngeneic mammary tumor model, tumor growth in vivo; set-up: species or system Balb/c mice; settings: 4T1 model
Protocol: A syngeneic mammary tumor model is used to show the effect of Ly6K small molecule inhibitors on tumor growth in vivo. 4T1 mouse model is an orthotopic allograft model (also called the spontaneous tumor metastasis model). In the 4T1 mouse model, 4T1 mouse mammary tumor cells were injected into the second mammary gland of syngenetic Balb/c mice, and the spontaneous metastasis to the lung were analyzed with a colonogenic assay. 4T1 mice bearing 50-70 mm^3 tumors were treated with NSC243928 or NSC11150 every second day at a dosage of 5 mg/kg in saline. Each group had 10 mice. Tumor measurements were performed using a Vernier caliper. The tumor volumes were calculated using equation ½*length*(width*width).

IFNγ/Stat1 signaling = assay: Western blot of IFNγ induced phosphorylation of Stat1; assay type: cell-based; settings: serum starved, IFN γ (100 ng/mL), 2 μM, 30 minutes
Protocol: as §1

PD-L1 = PD-L1 protein expression in control cells; assay type: cell-based; settings: 2 μM
[2] = tested on: Myeloid-derived suppressor cells (MDSCs); assay: MDSCs (Cd11b and Gr1 dual positive cells) in peripheral blood of 4T1 tumor bearing mice, flow cytometry; assay type: in vivo; settings: three doses of 50 mg/kg
Protocol: Myeloid-derived suppressor cells (MDSCs) are a major cell type which suppress the anti-tumor response. Cd11b and Gr1 dual positive cells in lymphocytes from peripheral blood from 4T1 tumor bearing mice received Compound I and the control group (10 mice in each group).
Three doses of Compound I (50 mg/kg) was injected via intravenously and intraperitoneally, and intravenous and peripheral blood was collected. Freshly isolated lymphocytes were stained with Cd11b and Gr-1 and a dye which can discriminated live and dead cells. The flow cytometry analysis for dual positivity was performed by gating on the live cells.

4T1 mammary cancer cells [3] = assay: 4T1 cellular morphology and growth after 16 hours treatment; assay type: cell-based, mouse
Protocol: (§2) 4T1 mammary cancer cells show lack of contact inhibited cell growth, i.e. the cells can grow on top of each other. 4T1 mammary cells were plated at the same cell density. Cells were serum starved overnight. They were supplemented with medium containing 10% serum with or without indicated doses of the Compound I for 16 hours.

4T1 mammary cells = assay: Cell cycle analysis of 4T1 cells (DAPI, flow cytometry); assay type: cell-based, mouse
Protocol: 4T1 mammary cells were plated at the same cell density. Cells were serum starved overnight. They were supplemented with medium containing 10% serum with or without indicated doses of the Compound I for 16 hours. Cells were washed with PBS to remove floating cells. Cells were collected by trypsinization and centrifugation. Cell were fixed with methanol and counted. Equal number of cells were stained with 5 mM DAPI and flow cytometry was performed on Cytoflex and for flowjo was used for cell cycle analysis.

4T1 mammary cancer cells [4] = assay: beta gal cellular senescence assay; assay type: cell-based, mouse
Protocol: as §2
It is thus contemplated that treatment with Compound I may lead to suppression of active proliferation, and one of such mechanisms is by induction of cellular senescence. Thus, a beta gal cellular senescence assay was carried out.

caspase 7 = assay: Western blot of caspase 7 activation in 4T1 cells; assay type: cell-based, mouse; settings: 0.1 μM, 1.0 μM or 5.0 μM, 16 hours
Protocol: Cancer cells accumulate various mutations in their genome, yet they are protected against DNA damage induced apoptosis. Poly (ADP-ribose) polymerase (PARP) is a protein which facilitates DNA repair, genomic stability, and inhibits programmed cell death. PARP proteins are inactivated by cleavage of caspase 3 and caspase 7 in vivo. PARP inactivation cleavage and caspase activation by western blot was studied.
(§3) 4T1 mammary cells were plated at the same cell density. Cells were serum starved overnight. They were supplemented with medium containing 10% serum with or without doses of Compound I (0.1 μM, 1.0 μM or 5.0 μM) and for 16 hours. Equal quantity of protein was loaded for western blot analysis.

RhoA = assay: Western blot of motility marker RhoA in 4T1 cells; assay type: cell-based, mouse; settings: 0.1 μM, 1.0 μM or 5.0 μM, 16 hours
Protocol: as §3

LC3B = assay: Western blot of autophagy marker LC3B in 4T1 cells; assay type: cell-based, mouse; settings: 0.1 μM, 1.0 μM or 5.0 μM, 16 hours
Protocol: as §3

## CCS(=O)(=O)Nc1ccc(Nc2c3ccccc3nc3ccccc23)c(OC)c1 [Compound I, N-(4-(acridin-9-ylamino)-3-methoxyphenyl)ethanesulfonamide]
MDA-MB-231 cells; control cells
  cell death / cell growth in control MDA-MB-231 cells: induces cell death; also recorded: significant inhibitory effect; also recorded: diminished the growth
MDA-MB-231 cells; sh2 LY6K knockdown cells
  cell viability / activity in LY6K knockdown MDA-MB-231 cells: increased cell viability; also recorded: inhibitory effect of NSC243928 is removed; also recorded: lost its activity
[1]; 5 mg/kg every second day, P<0.005
  day following treatment at which inhibition on tumor growth is statistically significant: 3 days
[1]; 5 mg/kg in saline every second day
  inhibitory effect on tumor growth in vivo: significant inhibitory effects
IFNγ/Stat1 signaling
  IFNγ induced phosphorylation of Stat1: had no effect
PD-L1
  PD-L1 protein expression: did not show significant effect
[2]
  lower MDSCs in peripheral blood of treated mice: more than 90%
[2]; gated on live cells
  Cd11b and Gr-1 dual positive cells in treated group: significantly lower
4T1 mammary cancer cells [3]; 0.1 μM
  cellular growth of 4T1 cells: inhibited the cellular growth
4T1 mammary cancer cells [3]; 1.0 μM
  cellular growth of 4T1 cells: inhibited the cellular growth
4T1 mammary cancer cells [3]; 5.0 μM
  cell density of 4T1 cells: reduced cell density
4T1 mammary cells
  concentration of maximum apoptosis: 5 µM
  concentration of maximum cell cycle arrest: 1 µM
4T1 mammary cells; 1.0 μM, 16 hours
  % of cells in singlet population, 4 n: 47.3%
  % of cells in singlet population, G1: 1.84%
  % of cells in singlet population, G2: 39.8%
  % of cells in singlet population, S: 2.27%
  % of cells in singlet population, Sub G1: 0.59%
  cell cycle arrest: cell cycle arrest in G2 phase-2n phase
4T1 mammary cells; 5.0 uM, 16 hours
  apoptosis: massive apoptosis
  cell cycle arrest: paused in G1 state
4T1 mammary cells; 5.0 μM, 16 hours
  % of cells in singlet population, 4 n: 0.024%
  % of cells in singlet population, G1: 67.5%
  % of cells in singlet population, G2: 0.35%
  % of cells in singlet population, S: 2.41%
  % of cells in singlet population, Sub G1: 7.38%
4T1 mammary cancer cells [4]; 5.0 μM
  cell density in senescence assay: cells density was very low
4T1 mammary cancer cells [4]; 0.001 to 1.0 μM
  induction of cellular senescence: strong induction of cellular senescence
Caspase 7
  caspase 7 activation: activated
RhoA
  marker of motility RhoA: downregulated
LC3B
  marker of autophagy LC3B: activated
